Test results taken from ChEMBL document CHEMBL1155152, “Increased expression of ampC in Pseudomonas aeruginosa mutants selected with ciprofloxacin” (2007).
Converted amounts (≈) assume the structure as drawn.

Key:
Format in all cases: functional
Pseudomonas aeruginosa [1] = test: Antibacterial activity against mexCD-oprJ overexpressing Pseudomonas aeruginosa 164M1-84C harboring p26PAD1 plasmid containing ampD gene
Pseudomonas aeruginosa [2] = test: Increase in ampC gene expression in Pseudomonas aeruginosa 164M1-84C overexpressing mexCD-oprJ genes by RT-PCR relative to wild-type
Pseudomonas aeruginosa [3] = test: Increase in ampDh3 gene expression in Pseudomonas aeruginosa 164M1-84C overexpressing mexCD-oprJ genes by RT-PCR relative to wild-type
Pseudomonas aeruginosa [4] = test: Increase in ampD gene expression in Pseudomonas aeruginosa 164M1-84C overexpressing mexCD-oprJ genes by RT-PCR relative to wild-type
Pseudomonas aeruginosa [5] = test: Increase in ampD gene expression in Pseudomonas aeruginosa 164M1-94C overexpressing mexCD-oprJ genes by RT-PCR relative to wild-type
Pseudomonas aeruginosa [6] = test: Antibacterial activity against Pseudomonas aeruginosa 164M1-84C overexpressing mexCD-oprJ genes
Pseudomonas aeruginosa [7] = test: Antibacterial activity against Pseudomonas aeruginosa 164M1
Pseudomonas aeruginosa [8] = test: Increase in ampC gene expression in mexCD-oprJ overexpressing Pseudomonas aeruginosa 164M1-94C harboring p26PAD1 plasmid containing ampD gene by RT-PCR relative to wild-type
Pseudomonas aeruginosa [9] = test: Increase in ampD gene expression in Pseudomonas aeruginosa 164M1 by RT-PCR relative to wild-type
Pseudomonas aeruginosa [10] = test: Antibacterial activity against Pseudomonas aeruginosa 164M1-94C overexpressing mexCD-oprJ genes
Pseudomonas aeruginosa [11] = test: Increase in ampDh2 gene expression in Pseudomonas aeruginosa 164M1-94C overexpressing mexCD-oprJ genes by RT-PCR relative to wild-type
Pseudomonas aeruginosa [12] = test: Increase in ampDh3 gene expression in Pseudomonas aeruginosa 164M1-94C overexpressing mexCD-oprJ genes by RT-PCR relative to wild-type
Pseudomonas aeruginosa [13] = test: Increase in ampC gene expression in Pseudomonas aeruginosa 164M1-94C overexpressing mexCD-oprJ genes by RT-PCR relative to wild-type
Pseudomonas aeruginosa [14] = test: Antibacterial activity against mexCD-oprJ overexpressing Pseudomonas aeruginosa 164M1-94C harboring p26PAD1 plasmid containing ampD gene
Pseudomonas aeruginosa [15] = test: Increase in ampDh2 gene expression in Pseudomonas aeruginosa 164M1-84C overexpressing mexCD-oprJ genes by RT-PCR relative to wild-type
Pseudomonas aeruginosa [16] = test: Antibacterial activity against Pseudomonas aeruginosa 164M1 harboring p26PAD1 plasmid containing ampD gene
Pseudomonas aeruginosa [17] = test: Increase in ampC gene expression in Pseudomonas aeruginosa 164M1 harboring p26PAD1 plasmid containing ampD gene by RT-PCR relative to wild-type
Pseudomonas aeruginosa [18] = test: Increase in ampDh3 gene expression in Pseudomonas aeruginosa 164M1 by RT-PCR relative to wild-type
Pseudomonas aeruginosa [19] = test: Increase in ampDh2 gene expression in Pseudomonas aeruginosa 164M1 by RT-PCR relative to wild-type
Pseudomonas aeruginosa [20] = test: Increase in ampC gene expression in Pseudomonas aeruginosa 164M1 by RT-PCR relative to wild-type
Pseudomonas aeruginosa [21] = test: Antibacterial activity against Pseudomonas aeruginosa 164

CC(C)(O/N=C(\C(=O)N[C@@H]1C(=O)N2C(C(=O)[O-])=C(C[n+]3ccccc3)CS[C@H]12)c1csc(N)n1)C(=O)O [CEFTAZIDIME]
MIC (Pseudomonas aeruginosa [1]): 2 µg/mL (≈ 3.66 µM) | fold change (FC) (Pseudomonas aeruginosa [2]): 1324 | fold change (FC) (Pseudomonas aeruginosa [3]): 1.6 | fold change (FC) (Pseudomonas aeruginosa [4]): 1.2 | fold change (FC) (Pseudomonas aeruginosa [5]): 1.1 | MIC (Pseudomonas aeruginosa [6]): 48 µg/mL (≈ 87.8 µM) | MIC (Pseudomonas aeruginosa [7]): 96 µg/mL (≈ 176 µM) | fold change (FC) (Pseudomonas aeruginosa [8]): 0.91 | fold change (FC) (Pseudomonas aeruginosa [9]): 1.3 | MIC (Pseudomonas aeruginosa [10]): 48 µg/mL (≈ 87.8 µM) | fold change (FC) (Pseudomonas aeruginosa [11]): 2.6 | fold change (FC) (Pseudomonas aeruginosa [12]): 3.1 | fold change (FC) (Pseudomonas aeruginosa [13]): 1165 | MIC (Pseudomonas aeruginosa [14]): 2 µg/mL (≈ 3.66 µM) | fold change (FC) (Pseudomonas aeruginosa [15]): 1.5 | MIC (Pseudomonas aeruginosa [16]): 4 µg/mL (≈ 7.32 µM) | fold change (FC) (Pseudomonas aeruginosa [17]): 1.1 | fold change (FC) (Pseudomonas aeruginosa [18]): 2.1 | fold change (FC) (Pseudomonas aeruginosa [19]): 2.6 | fold change (FC) (Pseudomonas aeruginosa [20]): 99 | MIC (Pseudomonas aeruginosa [21]): 2 µg/mL (≈ 3.66 µM)
